Patent US10457707B2, “Substituted urea depsipeptide analogs as activators of the CLPP endopeptidase” (priority 2015, dated 2019)
Values after ≈ are worked out from the molar mass of the structure shown. Read-outs that look alike come from different tables or passages of the source. *1 amine or outer side, *2 acyl side, *3 side chain or, on linkers, in order; H or OH if unused. Where a SMILES comes first, the peptide text is derived from it. Bridges are numbered along the chain shown (N, C = ends). [ ]: non-standard residue; d: D form. The star is where a group is joined. ξ: configuration not given here. Phe(3,5-F2) = N[C@@H](Cc1cc(F)cc(F)c1)C(=O)O; Morpholine(3S-CO) = O=C(O)[C@@H]1COCCN1; Pro(4S-Me) = C[C@@H]1CN[C@H](C(=O)O)C1; NH(4-Cl-2-F-phenyl) = Fc1cc(Cl)ccc1N*; Pro(4R-Me) = C[C@H]1CN[C@H](C(=O)O)C1; NMeaThr = CN[C@H](C(=O)O)[C@H](C)O; Hyp = O=C(O)[C@@H]1C[C@@H](O)CN1; NH(4-Et-phenyl) = CCc1ccc(N*)cc1; NMeT = CN[C@H](C(=O)O)[C@@H](C)O; Heptenoyl(2E) = CCCC/C=C/C(=O)*; NH(4-Me-phenyl) = Cc1ccc(N*)cc1; ξNMeThr = CNC(C(=O)O)[C@@H](C)O; aThr = C[C@H](O)[C@H](N)C(=O)O; Pip = O=C(O)[C@@H]1CCCCN1; CO = O=C([*:1])[*:2]

Experiments:
Format in all cases: cell-based
[1] = Cytotoxicity assay (CellTiter-Glo cell viability, 72 hours); conditions: African green monkey
In short: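 Vero cells, 5000/well, grown overnight at 37° C, 5% CO2 in DMEM with 10% FBS, then exposed to serial compound dilutions or DMSO for 72 hours. Viability read by CellTiter-Glo luminescence. IC50 from duplicate wells, reported as range over two independent experiments.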

[2] = test system: Bacillus subtilis, ATCC 23857; test: Minimal inhibitory concentration assay (microbroth dilution)
In short: (§1)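 CLSI broth microdilution: two-fold compound dilutions from 200 μM final, ~10^5 cfu/mL inoculum, aerobic overnight incubation at 37 °C. MIC read visually as lowest concentration preventing growth; S. aureus USA 300 compared with its ClpP-inactivated counterpart to check ClpP dependence.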

[3] = test system: Staphylococcus aureus, ATCC 29213; test: as above; conditions: ATCC29213, read-out: Minimal Inhibitory Concentrations S. aureus ATCC 29213
In short: as §1

[4] = test system: Staphylococcus aureus, NRS70; test: as above
In short: as §1

[5] = test system: Streptococcus pyogenes, ATCC 700294; test: as above
In short: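 CLSI broth microdilution: two-fold serial compound dilutions in appropriate broth, inoculated and incubated aerobically overnight at 37° C. MIC read visually as lowest concentration preventing bacterial growth.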

[6] = Vero cells, 72 hours, growth inhibition, read-out: Cytotoxicity IC50
[7] = Bacillus subtilis, ATCC23857, read-out: Minimal Inhibitory Concentrations B. subtilis ATCC 23857
[8] = Staphylococcus aureus, NRS70, read-out: Minimal Inhibitory Concentrations S. aureus NRS70
[9] = Streptococcus pyogenes, ATCC700294, read-out: Minimal Inhibitory Concentrations S. pyogenes ATCC 700294
[10] = Bacillus subtilis, ATCC23857; read-out: Minimal Inhibitory Concentrations B. subtilis ATCC 23857
[11] = Staphylococcus aureus, NRS70; read-out: Minimal Inhibitory Concentrations S. aureus NRS70
[12] = Streptococcus pyogenes, ATCC700294; read-out: Minimal Inhibitory Concentrations S. pyogenes ATCC 700294

SMILES | IC50 at 72 h [1, 6] [µM] | MIC [2, 7] [µM] | MIC [3] [µM] | MIC [4, 8] [µM] | MIC [5, 9] [µM] | IC50 at 72 h [1] [µM] | MIC [2, 10] [µM] | MIC [4, 11] [µM] | MIC [5, 12] [µM]
Cc1ccc(NC(=O)N[C@@H](Cc2cc(F)cc(F)c2)C(=O)N[C@H]2COC(=O)[C@@H]3C[C@@H](C)CN3C(=O)[C@H](C)NC(=O)[C@@H]3CCCCN3C(=O)[C@@H]3CCCN3C2=O)cc1C [Compound 207, (S)-3-(3,5-difluorophenyl)-N-((2R,6S,8aS,14aS,20S,23aS)-2,6-dimethyl-5,8,14,19,23-pentaoxooctadecahydro-1H,5H,14H,19H-pyrido[2,1-i]dipyrrolo[2,1-c:2′,1′-l][1]oxa[4,7,10,13]tetraazacyclohexadecin-20-yl)-2-(3-(3,4-dimethylphenyl)ureido)propanamide] | 31.1 ± 5.6 | < 0.2 | < 0.2 | < 0.2 | < 0.2 | – | – | – | –
C[C@@H]1C[C@H]2C(=O)O[C@@H](C)[C@H](NC(=O)[C@H](Cc3cc(F)cc(F)c3)NC(=O)Nc3ccc(Cl)cc3F)C(=O)N3CCC[C@H]3C(=O)N3CCCC[C@H]3C(=O)N[C@@H](C)C(=O)N2C1 [Compound 307, (S)-2-(3-(4-chloro-2-fluorophenyl)ureido)-3-(3,5-difluorophenyl)-N-((2R,6S,8aS,14aS,20S,21S,23aS)-2,6,21-trimethyl-5,8,14,19,23-pentaoxooctadecahydro-1H,5H,14H,19H-pyrido[2,1-i]dipyrrolo[2,1-c:2′,1′-l][1]oxa[4,7,10,13]tetraazacyclo-hexadecin-20-yl)propanamide] ({NH(4-Cl-2-F-phenyl)-CO}-[Phe(3,5-F2)][aThr]P[Pip]A[Pro(4R-Me)]; ester 2-C) | – | – | 0.039 (≈ 0.033 µg/mL) | – | – | 9.5 ± 0.8 | 0.039 (≈ 0.033 µg/mL) | 0.039 (≈ 0.033 µg/mL) | 0.156 (≈ 0.132 µg/mL)
Cc1ccc(NC(=O)N[C@@H](Cc2cc(F)cc(F)c2)C(=O)N[C@@H]2C(=O)N3CCC[C@H]3C(=O)N(C)[C@@H]([C@@H](C)O)C(=O)N[C@@H](C)C(=O)N3C[C@H](C)C[C@H]3C(=O)O[C@H]2C)cc1 [Compound 38, (S)-3-(3,5-difluorophenyl)-N-((2R,6S,9S,11aS,17S,18S,20aS)-9-((R)-1-hydroxyethyl)-2,6,10,18-tetramethyl-5,8,11,16,20-pentaoxohexadecahydro-1H,5H,16H-dipyrrolo[2,1-c:2′,1′-l][1]oxa[4,7,10,13]tetraazacyclohexadecin-17-yl)-2-(3-(p-tolyl)ureido)propanamide] ({NH(4-Me-phenyl)-CO}-[Phe(3,5-F2)][aThr]P[NMeT]A[Pro(4R-Me)]; ester 2-C) | 46.1 ± 5.5 | 0.05 (≈ 0.0406 µg/mL) | 0.05 (≈ 0.0406 µg/mL) | 0.05 (≈ 0.0406 µg/mL) | 0.1 (≈ 0.0812 µg/mL) | – | – | – | –
CCc1ccc(NC(=O)N[C@@H](Cc2cc(F)cc(F)c2)C(=O)N[C@@H]2C(=O)N3CCC[C@H]3C(=O)N(C)[C@@H]([C@@H](C)O)C(=O)N[C@@H](C)C(=O)N3C[C@H](C)C[C@H]3C(=O)O[C@H]2C)cc1 [Compound 42, (S)-3-(3,5-difluorophenyl)-2-(3-(4-ethylphenyl)ureido)-N-((2R,6S,9S,11aS,17S,18S,20aS)-9-((R)-1-hydroxyethyl)-2,6,10,18-tetramethyl-5,8,11,16,20-pentaoxohexadecahydro-1H,5H,16H-dipyrrolo[2,1-c:2′,1′-l][1]oxa[4,7,10,13]tetraazacyclohexadecin-17-yl)propanamide] ({NH(4-Et-phenyl)-CO}-[Phe(3,5-F2)][aThr]P[NMeT]A[Pro(4R-Me)]; ester 2-C) | – | – | 0.05 (≈ 0.0413 µg/mL) | – | – | 24.9 ± 2.6 | 0.01 (≈ 0.00826 µg/mL) | 0.02 (≈ 0.0165 µg/mL) | 0.05 (≈ 0.0413 µg/mL)
Cc1ccc(NC(=O)N[C@@H](Cc2ccccc2)C(=O)N[C@H]2COC(=O)[C@@H]3C[C@@H](C)CN3C(=O)[C@H](C)NC(=O)[C@@H]3CCCCN3C(=O)[C@@H]3CCCN3C2=O)cc1C [Compound 206, (S)—N-((2R,6S,8aS,14aS,20S,23aS)-2,6-dimethyl-5,8,14,19,23-pentaoxooctadecahydro-1H,5H,14H,19H-pyrido[2,1-i]dipyrrolo[2,1-c:2′,1′-l][1]oxa[4,7,10,13]tetraazacyclohexadecin-20-yl)-2-(3-(3,4-dimethylphenyl)ureido)-3-phenylpropanamide] | 74 ± 7.7 | < 0.2 | 0.39 (≈ 0.301 µg/mL) | 0.39 (≈ 0.301 µg/mL) | < 0.2 | – | – | – | –
C[C@@H]1C[C@H]2C(=O)OC[C@H](NC(=O)[C@H](Cc3cc(F)cc(F)c3)NC(=O)Nc3ccc4c(c3)OCO4)C(=O)N3CCC[C@H]3C(=O)N3CCCC[C@H]3C(=O)N[C@@H](C)C(=O)N2C1 [Compound 195, (S)-2-(3-(benzo[d][1,3]dioxol-5-yl)ureido)-3-(3,5-difluorophenyl)-N-((2R,6S,8aS,14aS,20S,23aS)-2,6-dimethyl-5,8,14,19,23-pentaoxooctadecahydro-1H,5H,14H,19H-pyrido[2,1-i]dipyrrolo[2,1-c:2′,1′-l][1]oxa[4,7,10,13]tetraazacyclohexadecin-20-yl)propanamide] | – | – | 0.6 (≈ 0.494 µg/mL) | – | – | 84.1 ± 8.3 | 0.3 (≈ 0.247 µg/mL) | 0.6 (≈ 0.494 µg/mL) | 0.3 (≈ 0.247 µg/mL)
C[C@@H]1C[C@H]2C(=O)O[C@@H](C)[C@H](NC(=O)[C@H](Cc3cc(F)cc(F)c3)NC(=O)Nc3ccc(Cl)cc3F)C(=O)N3CCC[C@H]3C(=O)N(C)C([C@@H](C)O)C(=O)N[C@@H](C)C(=O)N2C1 (stereo partly drawn) [Compound 313, (S)-2-(3-(4-chloro-2-fluorophenyl)ureido)-3-(3,5-difluorophenyl)-N-((2R,6S,9R,11aS,17S,18S,20aS)-9-((R)-1-hydroxyethyl)-2,6,10,18-tetramethyl-5,8,11,16,20-pentaoxohexadecahydro-1H,5H,16H-dipyrrolo[2,1-c:2′,1′-l][1]oxa[4,7,10,13]tetraazacyclohexadecin-17-yl)propanamide] ({NH(4-Cl-2-F-phenyl)-CO}-[Phe(3,5-F2)][aThr]P[ξNMeThr]A[Pro(4R-Me)]; ester 2-C) | – | – | < 0.02 | – | – | 13.5 ± 3.9 | < 0.02 | < 0.02 | < 0.02
CCCC/C=C/C(=O)N[C@@H](Cc1cc(F)cc(F)c1)C(=O)N[C@@H]1C(=O)N2CCC[C@H]2C(=O)N(C)[C@@H]([C@@H](C)O)C(=O)N[C@@H](C)C(=O)N2C[C@H](C)C[C@H]2C(=O)O[C@H]1C [Compound 308, (E)-N—((S)-3-(3,5-difluorophenyl)-1-(((2R,6S,9S,11aS,17S,18S,20aS)-9-((R)-1-hydroxyethyl)-2,6,10,18-tetramethyl-5,8,11,16,20-pentaoxohexadecahydro-1H,5H,16H-dipyrrolo[2,1-c:2′,1′-l][1]oxa[4,7,10,13]tetraazacyclohexadecin-17-yl)amino)-1-oxopropan-2-yl)hept-2-enamide] ({Heptenoyl(2E)}-[Phe(3,5-F2)][aThr]P[NMeT]A[Pro(4R-Me)]; ester 2-C) | – | – | 0.039 (≈ 0.0308 µg/mL) | – | – | 38.6 ± 1.1 | < 0.02 | 0.039 (≈ 0.0308 µg/mL) | < 0.02
C[C@@H]1C[C@H]2C(=O)O[C@@H](C)[C@H](NC(=O)[C@H](Cc3cc(F)cc(F)c3)NC(=O)Nc3ccc(Cl)cc3F)C(=O)N3C[C@H](O)C[C@H]3C(=O)N3CCOC[C@H]3C(=O)N[C@@H](C)C(=O)N2C1 [Compound 316, (S)-2-(3-(4-chloro-2-fluorophenyl)ureido)-3-(3,5-difluorophenyl)-N-((6aS,8R,12S,13S,15aS,17R,21S,23aS)-8-hydroxy-13,17,21-trimethyl-6,11,15,20,23-pentaoxooctadecahydro-6H,11H,15H-[1,4]oxazino[3,4-i]dipyrrolo[2,1-c:2′,1′-l][1]oxa[4,7,10,13]tetraazacyclo-hexadecin-12-yl)propanamide] ({NH(4-Cl-2-F-phenyl)-CO}-[Phe(3,5-F2)][aThr][Hyp][Morpholine(3S-CO)]A[Pro(4R-Me)]; ester 2-C) | – | – | 0.078 (≈ 0.0674 µg/mL) | – | – | > 100 | 0.313 (≈ 0.271 µg/mL) | 0.078 (≈ 0.0674 µg/mL) | < 0.02
CCc1ccc(NC(=O)N[C@@H](Cc2cc(F)cc(F)c2)C(=O)N[C@@H]2C(=O)N3CCC[C@H]3C(=O)N(C)[C@@H]([C@H](C)O)C(=O)N[C@@H](C)C(=O)N3C[C@@H](C)C[C@H]3C(=O)O[C@H]2C)cc1 [Compound 204, (S)-3-(3,5-difluorophenyl)-2-(3-(4-ethylphenyl)ureido)-N-((2S,6S,9S,11aS,17S,18S,20aS)-9-((S)-1-hydroxyethyl)-2,6,10,18-tetramethyl-5,8,11,16,20-pentaoxohexadecahydro-1H,5H,16H-dipyrrolo[2,1-c:2′,1′-l][1]oxa[4,7,10,13]tetraazacyclohexadecin-17-yl)propanamide] ({NH(4-Et-phenyl)-CO}-[Phe(3,5-F2)][aThr]P[NMeaThr]A[Pro(4S-Me)]; ester 2-C) | – | – | 0.098 (≈ 0.0809 µg/mL) | – | – | 33.8 ± 1.6 | 0.049 (≈ 0.0405 µg/mL) | 0.098 (≈ 0.0809 µg/mL) | 0.098 (≈ 0.0809 µg/mL)
